Earlier results on 28 compounds are cited in US20240401031A1, “Platform Using iPSC-Derived Cardiomyocytes Carrying Gene Variants as Models of Cardiac Disease and Drug-Response” (SRI INTERNATIONAL, priority 2021, published 2024).

Structures are written as SMILES.

For this data set the following is noted: source CredibleMeds.
For `CCc1cc(/C(C)=N/OCc2ccc(C3CCCCC3)c(C(F)(F)F)c2)ccc1CN1CC(C(=O)O)C1` [Siponimod], the “Risk (Torsade de Pointes)” value was “(PR)”.
For the compound `CNC(=O)c1cc(Oc2ccc(NC(=O)Nc3ccc(Cl)c(C(F)(F)F)c3)cc2)ccn1` [Sorafenib], the “Risk (Torsade de Pointes)” value is “(PR)”.
In the case of `C[C@@H]1CN(c2c(F)c(N)c3c(=O)c(C(=O)O)cn(C4CC4)c3c2F)C[C@H](C)N1` [Sparfloxacin], the “Risk (Torsade de Pointes)” value is “(KR)”.
On to `CCN1CCCC1CNC(=O)c1cc(S(N)(=O)=O)ccc1OC` (stereo not shown) [Sulpiride], for which the “Risk (Torsade de Pointes)” value was “(KR)”.
In the case of `CCN1CCCC1CNC(=O)c1cc(S(=O)(=O)CC)ccc1OC` (stereo not shown) [Sultopride], the “Risk (Torsade de Pointes)” value is given as “(KR)”.
Consider `CCN(CC)CCNC(=O)c1c(C)[nH]c(/C=C2\C(=O)Nc3ccc(F)cc32)c1C` [Sunitinib], for which the “Risk (Torsade de Pointes)” value is “(PR)”.
Take `C=CC[C@@H]1/C=C(\C)C[C@H](C)C[C@H](OC)[C@H]2O[C@@](O)(C(=O)C(=O)N3CCCC[C@H]3C(=O)O[C@H](/C(C)=C/[C@@H]3CC[C@@H](O)[C@H](OC)C3)[C@H](C)[C@@H](O)CC1=O)[C@H](C)C[C@@H]2OC` [Tacrolimus]: the “Risk (Torsade de Pointes)” value is on record as “(PR)”.
As for `CCN(c1cc(-c2ccc(CN3CCOCC3)cc2)cc(C(=O)NCc2c(C)cc(C)[nH]c2=O)c1C)C1CCOCC1` [Tazemetostat], the “Risk (Torsade de Pointes)” value is on record as “(PR)”.
Take `CCC[C@H](NC(=O)[C@@H]1[C@H]2CCC[C@H]2CN1C(=O)[C@@H](NC(=O)[C@@H](NC(=O)c1cnccn1)C1CCCCC1)C(C)(C)C)C(=O)C(=O)NC1CC1` [Telaprevir]: the “Risk (Torsade de Pointes)” value is listed as “(CR)”.
For the compound `CC[C@H]1OC(=O)[C@H](C)C(=O)[C@H](C)[C@@H](O[C@@H]2O[C@H](C)C[C@H](N(C)C)[C@H]2O)[C@](C)(OC)C[C@@H](C)C(=O)[C@H](C)[C@H]2N(CCCCn3cnc(-c4cccnc4)c3)C(=O)O[C@]12C` [Telithromycin], the “Risk (Torsade de Pointes)” value was “(PR)”.
Turning to `CC(C)(C)NCC(O)c1cc(O)cc(O)c1` (stereo not shown) [Terbutaline], the “Risk (Torsade de Pointes)” value is reported as “(SR)”.
For `CC(CC(c1ccccc1)c1ccccc1)NC(C)(C)C` (stereo not shown) [Terodiline], the “Risk (Torsade de Pointes)” value was “(KR)”.
Regarding `COc1cc2c(cc1OC)C1CC(=O)C(CC(C)C)CN1CC2` (stereo not shown) [Tetrabenazine], the “Risk (Torsade de Pointes)” value is “(PR)”.
For `CCN(CC)CCNC(=O)c1cc(S(C)(=O)=O)ccc1OC` [Tiapride], the “Risk (Torsade de Pointes)” value is “(PR)”.
On to `CN(C)CCOc1ccc(/C(=C(/CCCl)c2ccccc2)c2ccccc2)cc1` [Toremifene], for which the “Risk (Torsade de Pointes)” value is given as “(PR)”.
For the compound `Cc1cccc(Nc2ccncc2S(=O)(=O)NC(=O)NC(C)C)c1` [Torsemide], the “Risk (Torsade de Pointes)” value was “(CR)”.
In the case of `COc1cccc(C2(O)CCCCC2CN(C)C)c1` (stereo not shown) [Tramadol], the “Risk (Torsade de Pointes)” value is listed as “(PR)”.
Take `O=c1n(CCCN2CCN(c3cccc(Cl)c3)CC2)nc2ccccn12` [Trazodone]: the “Risk (Torsade de Pointes)” value is recorded as “(CR)”.
For the compound `CC(CN(C)C)CN1c2ccccc2CCc2ccccc21` (stereo not shown) [Trimipramine], the “Risk (Torsade de Pointes)” value is on record as “(PR)”.
For `CN1[C@@H]2CC[C@H]1C[C@@H](OC(=O)c1c[nH]c3ccccc13)C2` [Tropisetron], the “Risk (Torsade de Pointes)” value is listed as “(PR)”.
As to `COc1cc2c(cc1OC)[C@H]1C[C@@H](OC(=O)[C@@H](N)C(C)C)[C@H](CC(C)C)CN1CC2` [Valbenazine], the “Risk (Torsade de Pointes)” value is on record as “(PR)”.
Regarding `COc1cc2c(Nc3ccc(Br)cc3F)ncnc2cc1OCC1CCN(C)CC1` [Vandetanib], the “Risk (Torsade de Pointes)” value is “(KR)”.
For `CCCS(=O)(=O)Nc1ccc(F)c(C(=O)c2c[nH]c3ncc(-c4ccc(Cl)cc4)cc23)c1F` [Vemurafenib], the “Risk (Torsade de Pointes)” value is given as “(PR)”.
For `C=C/C=C/C[C@@H](C)[C@@H](O)[C@H]1C(=O)N[C@@H](CC)C(=O)N(C)CC(=O)N(C)[C@@H](CC(C)C)C(=O)N[C@@H](C(C)C)C(=O)N(C)[C@@H](CC(C)C)C(=O)N[C@@H](C)C(=O)N[C@H](C)C(=O)N(C)[C@@H](CC(C)C)C(=O)N(C)[C@@H](CC(C)C)C(=O)N(C)[C@@H](C(C)C)C(=O)N1C` [Voclosporin], the “Risk (Torsade de Pointes)” value was “(PR)”.
For the compound `O=C(CCCCCCC(=O)Nc1ccccc1)NO` [Vorinostat], the “Risk (Torsade de Pointes)” value is given as “(PR)”.
In the case of `Cc1cc(C(C)(C)C)cc(C)c1CC1=NCCN1` [Xylometazoline], the “Risk (Torsade de Pointes)” value was “(SR)”.
On to `O=C1Cc2cc(CCN3CCN(c4nsc5ccccc45)CC3)c(Cl)cc2N1` [Ziprasidone], for which the “Risk (Torsade de Pointes)” value is on record as “(CR)”.
With `OCCN1CCN(CC/C=C2/c3ccccc3Sc3ccc(Cl)cc32)CC1` [Zuclopenthixol], the “Risk (Torsade de Pointes)” value was “(PR)”.
